Data from patent US6593462B2, “Purified β1,2-xylosyltransferase and uses thereof” (priority 1997, dated 2003).
Values belong to the compound of their own block, whether it stands above or below them.

How the values were obtained:
β1,2-xylosyltransferase [1] = assay: Specificity of nucleoside diphosphate sugar donor for xylosyltransferase; type: biochemical, soybean; settings: radioactive sugar nucleotide 20,000 cpm, 200 μM, asialo-agalactotransferrin glycopeptide acceptor, 1 hour at 37°; for cpm incorporated into oligosaccharide, Purified Enzyme: about 20 ng protein
Method: The substrate specificity of the xylosyltransferase for the nucleoside diphosphate sugar donor was also examined, using a variety of radiolabeled sugar nucleotides, as presented in Table 4. Each of these substrates was adjusted to have the same specific activity, and they were compared to each other at that activity.
Enzyme (particulate fraction or purified xylosyltransferase (about 20 ng protein) from UDP-hexanolamine-Sepharose) was incubated with radioactive sugar nucleotide (20,000 cpm; 200 μM) and asialo-agalactotransferrin glycopeptide for 1 hour at 37°. The reaction mixture was then separated on a Biogel P-4 column and radioactivity in oligasaccharide was determined.

β1,2-xylosyltransferase [2] = assay: Xylosyltransferase activity assay: transfer of 3H-xylose from UDP-[3H]xylose to oligosaccharide acceptor; type: biochemical, soybean; settings: for Activity (cpm xylose transferred) with Purified Enzyme / Activity (cpm xylose transferred) with Particulate Enzyme: oligosaccharide as acceptor, gel filtration on Biogel P-4; for Km: purified enzyme, FIG. 8; for Effect of cation added to the purified enzyme (in words) / Stimulation of enzyme activity: 1 mM; for Stimulation of enzyme activity: enzyme dialyzed in the presence of EDTA
Method: Reaction mixtures for the assay of β1,2-xylosyltransferase contained the following components in a final volume of 25 μl: 100 mM MES buffer, pH 7.0, 10 mM MnCl2, 0.2% Triton X-100, 5 mM ATP, 0.2 mM UDP-[^3H]xylose (15,000 cpm), and 4 nmol of oligosaccharide acceptor (usually GlcNAc2-Man3-GlcNAc2-tyrosinamide; see structure 4 of FIG. 6, or the asialo-agalacto-oligosaccharide from transferrin). The reaction was started by the addition of 5 μl of the enzyme solution, and incubations were usually at 37° C. for 1 hour. The reaction was stopped by the addition of 100 μl of 1% acetic acid, and the reaction mixtures were chromatographed on a column of Biogel P-4 prepared by placing 8 ml of gel into a 10 ml pipette. The columns were equilibrated with 1% acetic acid, and the product was separated from substrates by elution with 1% acetic acid containing 0.2 M NaCl.
When more purified enzyme preparations were used in the assays, the radiolabeled product could be separated from the radioactive substrate by ion-exchange chromatography on an Amberlite column (or a column of Dowex-1-Cl^−) contained in a Pasteur pipette. […] Thus the wash can be counted as a measure of radioactive xylose transferred to oligosaccharide. In these assays, it is important to be certain that the enzyme preparation is free of degradative enzymes that cleave UDP-xylose to free xylose.

[3] = tested on: β1,2-xylosyltransferase (56 and 59 kDa bands); assay: Photoaffinity labeling of xylosyltransferase with N3-UDP[32P]-xylose; type: binding, soybean; settings: for Effect of unlabeled nucleoside diphosphate sugar on radiolabel in the 56 and 59 kDa bands: 10 and 100 μM (b69 prints 0.1, 1 and 10 μM for UDP-xylose); for Effect of oligosaccharide on binding of UDP-xylose probe: FIG. 3A lanes 12 and 13
Method: In FIG. 3B, effects of various amounts of acceptor oligosaccharides on labeling with UDP-xylose probe are shown.
In order to determine which band was really the xylosyltransferase, the enzyme fraction from UDP-hexanolamine-Sepharose was incubated with azido-UDP[^32P]-xylose, and after 30 sec., the mixture was exposed to UV light to activate the azido group.
Thus, lane 1 is without oligosaccharide acceptor while lanes 2-5 are with 4, 10, 30 and 80 μM oligosaccharide 4 and lanes 6-9 with oligoscacharide 10.

fucosyltransferase = assay: Fucose incorporation from GDP-[3H]fucose into oligosaccharide 4 by soybean particulate enzyme; type: biochemical; settings: oligosaccharide 4 acceptor
Method: Based on the substrate specificity for oligosaccharide acceptor, it would appear that xylose is added after the action of GlcNAc transferase I and mannosidase II but before the addition of galactose residues to the terminal GlcNAc units. Most of these types of N-linked oligosaccharides also contain an […] L-fucose on the innermost GlcNAc unit. In order to determine whether addition of xylose affects fucose transfer to the oligosaccharide, or vice versa, assays were prepared that contained oligosaccharide 4 as acceptor, radiolabeled nucleoside diphosphate sugar (i.e., either UDP-[^3H]xylose or GDP-[^3H]fucose) and either unlabeled UDP-xylose or unlabeled GDP-fucose. Thus, when the incubation contained radioactive UDP-xylose, various amounts of unlabeled GDP-fucose were added to determine whether addition of fucose would stimulate or inhibit xylose transfer. Likewise, when labeled GDP-fucose was used, the incubations contained unlabeled UDP-xylose. These incubations were done with the soybean particulate enzyme, so that both fucosyltransferase and xylosyltransferase were present.

β1,2-xylosyltransferase [4] = assay: Xylosyltransferase activity assay: transfer of 3H-xylose from UDP-[3H]xylose to oligosaccharide acceptor; type: biochemical, soybean; settings: donor substrate; 5 nmoles of oligosaccharide 4; FIG. 9
β1,2-xylosyltransferase [5] = assay: Solubilization of xylosyltransferase from microsomes by detergents; type: biochemical, soybean; settings: for Xylose Transferred to Acceptor (cpm), High Speed Supernatant / Xylose Transferred to Acceptor (cpm), Particulate Suspension: protein 10 mg/ml
Method: In order to purify this glycosyltransferase, it was necessary to solubilize the enzyme from the microsomes. A variety of detergents were tested at different concentrations for their ability to solubilize the xylosyltransferase and maintain its stability. […] The enzymatic activity in the supernatant liquid was then measured in the usual transferase assay.

Compound: GlcNAc-Man3-5′-isomer [Oligosaccharide 8]
Effectiveness as xylose acceptor as compared to oligosaccharide 4 (β1,2-xylosyltransferase [2]): about 50% | Activity (cpm xylose transferred) with Purified Enzyme (β1,2-xylosyltransferase [2]): 69 cpm

Compound: CCCCCCCCCCCCCCCC[n+]1ccccc1.[Cl-] [CPC]
Xylose Transferred to Acceptor (cpm), High Speed Supernatant (β1,2-xylosyltransferase [5]; detergent 1%): 64 cpm | Xylose Transferred to Acceptor (cpm), Particulate Suspension (β1,2-xylosyltransferase [5]; detergent 1%): 1341 cpm

Compound: Nc1nc2c(ncn2[C@@H]2O[C@H](COP(=O)(O)OP(=O)(O)O[C@H]3O[C@H](CO)[C@@H](O)[C@H](O)[C@@H]3O)[C@@H](O)[C@H]2O)c(=O)[nH]1 [GDP-mannose]
cpm incorporated into oligosaccharide, Particulate Enzyme (β1,2-xylosyltransferase [1]): 75 cpm | cpm incorporated into oligosaccharide, Purified Enzyme (β1,2-xylosyltransferase [1]): 59 cpm

Compound: [Hg+2] [Hg^++]
Effect of cation added to the purified enzyme (in words) (β1,2-xylosyltransferase [2]): strongly inhibitory

Compound: [Ca+2].[Cl-].[Cl-] [CaCl2]
Stimulation of enzyme activity (β1,2-xylosyltransferase [2]): 15%

Compound: [Ca+2] [Ca^++]
Effect of cation added to the purified enzyme (in words) (β1,2-xylosyltransferase [2]): no stimulation

Compound: [Fe+3] [Fe^+++]
Effect of cation added to the purified enzyme (in words) (β1,2-xylosyltransferase [2]): strongly inhibitory

Compound: C[C@@H]1O[C@H](OP(=O)(O)OP(=O)(O)OC[C@H]2O[C@@H](n3cnc4c(=O)[nH]c(N)nc43)[C@H](O)[C@@H]2O)[C@@H](O)[C@H](O)[C@@H]1O [GDP-fucose]
Effect of unlabeled GDP-fucose on xylose incorporation (β1,2-xylosyltransferase [2]; high concentrations, oligosaccharide 4 acceptor, particulate enzyme): some inhibition of xylose incorporation | cpm incorporated into oligosaccharide, Particulate Enzyme (β1,2-xylosyltransferase [1]): 1033 cpm | cpm incorporated into oligosaccharide, Purified Enzyme (β1,2-xylosyltransferase [1]): 142 cpm

Compound: [Pb+2] [Pb^++]
Effect of cation added to the purified enzyme (in words) (β1,2-xylosyltransferase [2]): strongly inhibitory

Compound: GlcNAc-Man3-5-isomer [Oligosaccharide 9]
Ability to serve as acceptor of xylose (in words) (β1,2-xylosyltransferase [2]): completely inactive as an acceptor | Activity (cpm xylose transferred) with Purified Enzyme (β1,2-xylosyltransferase [2]): 1194 cpm

Compound: CCCCCCCCO[C@@H]1O[C@H](CO)[C@@H](O)[C@H](O)[C@H]1O [Octylglucoside]
Xylose Transferred to Acceptor (cpm), High Speed Supernatant (β1,2-xylosyltransferase [5]; detergent 1%): 210 cpm | Xylose Transferred to Acceptor (cpm), Particulate Suspension (β1,2-xylosyltransferase [5]; detergent 1%): 2395 cpm

Compound: [Cl][Mn][Cl] [MnCl2]
Effect of cation added to the purified enzyme (in words) (β1,2-xylosyltransferase [2]): slight stimulation

Compound: CC(=O)N[C@H]1[C@H](O[C@H]2[C@H](O)[C@@H](NC(C)=O)C(O)O[C@@H]2CO)O[C@H](CO)[C@@H](O[C@@H]2O[C@H](CO[C@H]3O[C@H](CO[C@H]4O[C@H](CO)[C@@H](O)[C@H](O)[C@@H]4O[C@H]4O[C@H](CO)[C@@H](O)[C@H](O)[C@@H]4O)[C@@H](O)[C@H](O[C@H]4O[C@H](CO)[C@@H](O)[C@H](O)[C@@H]4O[C@H]4O[C@H](CO)[C@@H](O)[C@H](O)[C@@H]4O)[C@@H]3O)[C@@H](O)[C@H](O[C@H]3O[C@H](CO)[C@@H](O)[C@H](O)[C@@H]3O[C@H]3O[C@H](CO)[C@@H](O)[C@H](O)[C@@H]3O[C@H]3O[C@H](CO)[C@@H](O)[C@H](O)[C@@H]3O)[C@@H]2O)[C@@H]1O (stereo partly shown) [Man9(GlcNAc)2]
Activity (cpm xylose transferred) with Particulate Enzyme (β1,2-xylosyltransferase [2]): 48 cpm | Activity (cpm xylose transferred) with Purified Enzyme (β1,2-xylosyltransferase [2]): 262 cpm

Compound: [Cl-].[Cl-].[Mg+2] [MgCl2]
Effect of cation added to the purified enzyme (in words) (β1,2-xylosyltransferase [2]): slight stimulation | Stimulation of enzyme activity (β1,2-xylosyltransferase [2]): 11%

Compound: C[C@H](CCC(=O)NCCC[N+](C)(C)CCCS(=O)(=O)[O-])[C@H]1CC[C@H]2[C@@H]3[C@H](O)C[C@@H]4C[C@H](O)CC[C@]4(C)[C@H]3C[C@H](O)[C@]12C [CHAPS]
Xylose Transferred to Acceptor (cpm), High Speed Supernatant (β1,2-xylosyltransferase [5]; detergent 1%): 541 cpm | Xylose Transferred to Acceptor (cpm), Particulate Suspension (β1,2-xylosyltransferase [5]; detergent 1%): 2168 cpm

Compound: [Co+2] [Co^++]
Effect of cation added to the purified enzyme (in words) (β1,2-xylosyltransferase [2]): no stimulation

Compound: [Fe+2] [Fe^++]
Effect of cation added to the purified enzyme (in words) (β1,2-xylosyltransferase [2]): no stimulation

Compound: GlcNAc2Man3(GlcNAc)2-T [Oligosaccharide 4]
Ability to serve as acceptor of xylose (in words) (β1,2-xylosyltransferase [2]): best acceptors | Activity (cpm xylose transferred) with Particulate Enzyme (β1,2-xylosyltransferase [2]): 3578 cpm | Activity (cpm xylose transferred) with Purified Enzyme (β1,2-xylosyltransferase [2]): 3648 cpm | Km (β1,2-xylosyltransferase [2]): ~75 µM | Effect of oligosaccharide on binding of UDP-xylose probe [3]: greatly stimulated binding of UDP-xylose

Compound: O=C(O)CN(CCN(CC(=O)O)CC(=O)O)CC(=O)O [EDTA]
Effect of EDTA on purified xylosyltransferase (β1,2-xylosyltransferase [2]; addition of, or dialysis against): not inhibited

Now from value to compound, other results behind:

cpm incorporated into oligosaccharide, Particulate Enzyme (β1,2-xylosyltransferase [1]): 72 cpm | cpm incorporated into oligosaccharide, Purified Enzyme (β1,2-xylosyltransferase [1]): 63 cpm
Compound: CC(=O)N[C@H]1[C@@H](OP(=O)(O)OP(=O)(O)OC[C@H]2O[C@@H](n3ccc(=O)[nH]c3=O)[C@H](O)[C@@H]2O)O[C@H](CO)[C@H](O)[C@@H]1O [UDP-GalNAc]

cpm incorporated into oligosaccharide, Particulate Enzyme (β1,2-xylosyltransferase [1]): 1479 cpm | cpm incorporated into oligosaccharide, Purified Enzyme (β1,2-xylosyltransferase [1]): 2597 cpm | Effect of unlabeled nucleoside diphosphate sugar on radiolabel in the 56 and 59 kDa bands [3]: greatly diminished | Km (β1,2-xylosyltransferase [4]): ~0.1 µM
Compound: O=c1ccn([C@@H]2O[C@H](COP(=O)(O)OP(=O)(O)O[C@H]3OC[C@@H](O)[C@H](O)[C@H]3O)[C@@H](O)[C@H]2O)c(=O)[nH]1 [UDP-xylose]
Effect of unlabeled UDP-xylose on incorporation of fucose into oligosaccharide (fucosyltransferase): did not affect the incorporation of fucose

Ability to serve as acceptor of xylose (in words) (β1,2-xylosyltransferase [2]): best acceptors | Activity (cpm xylose transferred) with Particulate Enzyme (β1,2-xylosyltransferase [2]): 3212 cpm | Activity (cpm xylose transferred) with Purified Enzyme (β1,2-xylosyltransferase [2]): 2387 cpm | Km (β1,2-xylosyltransferase [2]): ~150 µM | Effect of oligosaccharide on binding of UDP-xylose probe [3]: greatly stimulated binding of UDP-xylose
Compound: GlcNAc2Man3GlcNAc(Fuc)GlcNAc-T [Oligosaccharide 10]

Enzymatic activity recovered in the supernatant liquid (β1,2-xylosyltransferase [5]; 1% or 2% detergent in Buffer B): at least 80% | Xylose Transferred to Acceptor (cpm), High Speed Supernatant (β1,2-xylosyltransferase [5]; detergent 0.5%): 1189 cpm | Xylose Transferred to Acceptor (cpm), Particulate Suspension (β1,2-xylosyltransferase [5]; detergent 0.5%): 2481 cpm | Xylose Transferred to Acceptor (cpm), High Speed Supernatant (β1,2-xylosyltransferase [5]; detergent 1%): 2188 cpm | Xylose Transferred to Acceptor (cpm), Particulate Suspension (β1,2-xylosyltransferase [5]; detergent 1%): 2689 cpm | Xylose Transferred to Acceptor (cpm), High Speed Supernatant (β1,2-xylosyltransferase [5]; detergent 2%): 2297 cpm | Xylose Transferred to Acceptor (cpm), Particulate Suspension (β1,2-xylosyltransferase [5]; detergent 2%): 2695 cpm
Compound: Triton x-100

Effect of unlabeled nucleoside diphosphate sugar on radiolabel in the 56 and 59 kDa bands [3]: did not inhibit
Compound: O=C(O)[C@H]1O[C@H](OP(=O)(O)OP(=O)(O)OC[C@H]2O[C@@H](n3ccc(=O)[nH]c3=O)[C@H](O)[C@@H]2O)[C@H](O)[C@@H](O)[C@@H]1O [UDP-glucuronic acid]

cpm incorporated into oligosaccharide, Particulate Enzyme (β1,2-xylosyltransferase [1]): 246 cpm | cpm incorporated into oligosaccharide, Purified Enzyme (β1,2-xylosyltransferase [1]): 128 cpm
Compound: CC(=O)N[C@H]1[C@@H](OP(=O)(O)OP(=O)(O)OC[C@H]2O[C@@H](n3ccc(=O)[nH]c3=O)[C@H](O)[C@@H]2O)O[C@H](CO)[C@@H](O)[C@@H]1O [UDP-GlcNAc]

Xylose Transferred to Acceptor (cpm), High Speed Supernatant (β1,2-xylosyltransferase [5]; detergent 1%): 1574 cpm | Xylose Transferred to Acceptor (cpm), Particulate Suspension (β1,2-xylosyltransferase [5]; detergent 1%): 1570 cpm
Compound: C[C@H](CCC(=O)NCCS(=O)(=O)O)[C@H]1CC[C@H]2[C@@H]3[C@H](O)C[C@@H]4C[C@H](O)CC[C@]4(C)[C@H]3C[C@H](O)[C@]12C [Taurocholoate]

Activity (cpm xylose transferred) with Purified Enzyme (β1,2-xylosyltransferase [2]): 106 cpm
Compound: Transferrin: transferrin obtained from Sigma Chemical Co.
